Patent US8883740B2, “Peptides, compositions, and uses thereof” (Fundacao de Amparoa Pesquisa do Estado de Sao Paulo-Fapesp, priority 2008, dated 2014)
Values joined by “and” are separate entries in the source; they are usually repeats but may differ in a detail not shown here. Equal entries are not always repeated.

Key:
[1] = tested on: endothelial cells (HUVEC); assay: Cell viability, MTT colorimetric assay under reduced serum; type: cell-based; conditions: 5 μg/ml; 48 hours; RPMI 1640 with 1% FBS; vs control without peptide
Protocol: Tests for cell viability (% viability) was realized utilizing reduced serum conditions and MTT (3-[4,5-Dimethylthiazol-2-yl]-2,5-Diphenyltetrazolium bromide) colorometric assay (Mosmann, 1983). The results are illustrated in FIGS. 1 to 3.
FIG. 1 illustrates the effect of peptides (5 μg/ml) on cell viability (% viability) of endothelial cells (HUVEC) when incubated together for 48 hours in RPMI 1640 with 1% FBS. The control has cells incubated in RPMI 1640 with 1% FBS (with no peptide).
FIG. 2 illustrates the effect of different concentrations of CNF011.05B on cell viability (% viability) of endothelial cells when incubated together for 120 hours in RPMI supplemented with 1% FBS.
FIG. 3 illustrates the effect of different concentrations of CNF011.05D on cell viability (% viability) of endothelial cells when incubated together for 48 hours in RPMI supplemented with 1% FBS.

Neutrophils [2] = assay: Neutrophil viability by flow cytometry (annexin V / propidium iodide), reduced serum; type: cell-based, Wistar Rats; conditions: reduced serum medium (1%), 24 hours
Protocol: (§1) Neutrophils or primary cultured endothelial cells from Wistar Rats were cultured in reduced serum medium (1%) in presence of CNF011.05D (3.0 μm/mL) and/or […] L-NAME, an inhibitor of NO synthase (and accordingly, an inhibitor of NO and resulting metabolite NO2 production). After 24 hours, cell viability was measured using flow cytometry analysis with FITC annexin V (1:500) and propidium iodide (10 μl of 50 mg/ml). The viability of both neutrophils (FIG. 4) and primary endothelial cells (FIG. 5) was increased with the peptide CNF011.05D alone, and this increase was diminished in presence of L-NAME.

[3] = tested on: primary cultured endothelial cells; assay: Primary endothelial cell viability by flow cytometry (annexin V / propidium iodide), reduced serum; type: cell-based, Wistar Rats; conditions: reduced serum medium (1%), 24 hours
Protocol: as §1

Neutrophils [4] = assay: NO2 production by neutrophils, Griess reaction; type: cell-based, Wistar Rats; conditions: 1.5 μg/ml; 18 hours; absorbance at 550 nm
Protocol: Neutrophils were cultured for 18 hours with CNF011.05D (1.5 μg/ml), and production of NO metabolite NO2 secreted into culture was assessed by use of the Griess reaction, and measurement of absorbance at 550 nm.

Human fibroblasts [5] = assay: Production of fibronectin by fibroblasts, indirect immunofluorescence; type: cell-based; conditions: 0.35 μg; 4 days; vs saline; p<0.001
Protocol: (§2) Human fibroblasts were acquired from ear lobe skin fragments (0.5×0.5 cm) from 5 normal African-Brazilian female donors, with age ranging from 10 to 40 years old, respectively called 2/05, 3/05, 4/05, 6/05 and 8/05. The donors were submitted to excisional biopsies in a surgical environment after free voluntary consent.
(§3) Cells from the 6th subculture were placed in sterile culture plates and incubated with CNF011.05D at concentrations of 0.35 μg and 5 μg in culture medium for 4 days. The control group consisted of fibroblasts cultured under the same conditions, in which saline solution (a solvent of CNF011.05D) was added in the place of CNF011.05D.
(§4) Indirect immunofluorescence was performed using (1) Anti-fibronectin (cellular) mAb OR anti-human tenascin mAb (Sigma-USA); and (2) Alexa Fluor 488 (Molecular Probes-USA).
Samples tested are FBN-CN (cells treated with saline), FBN-0.35 (cells treated with CNF011.05D at 0.35 μg), and FBN-5 μg (cells treated with CNF011.05D at 5 μg).

Human fibroblasts [6] = assay: Production of tenascin by fibroblasts, indirect immunofluorescence; type: cell-based; conditions: 0.35 μg; 4 days; vs saline; p<0.001
Protocol: as §2, §3, §4
Samples tested are CN (cells treated with saline), TN-0.35 (cells treated with CNF011.05D at 0.35 μg), and TN-5 μg (cells treated with CNF011.05D at 5 μg).

collagen in the dermis = assay: Production of collagen in the dermis after subcutaneous doses; type: in vivo
Source text: Levels of collagen were examined after different administrations of CNF011.05D: a single subcutaneous dose, two subcutaneous doses, and four subcutaneous doses.

punch wounds [7] = assay: Wound healing in rats, 6 mm punch wounds; type: in vivo, Wistar rats
Protocol: Size and microscopic appearance of punch wounds was assessed in rats after a single dose of CNF011.05D. The rats were Wistar rats of 6-to-8 weeks of age, which were anesthesized and operated on the dorsal side of their backs. Following clipping of hair and scrub sterilization, wounds were made in each rat using a 6 mm biopsy punch. Following wounding and drying with sterile gauze, wounds were subjected to (1) bandaging (Standard Care) or (2) application of CNF011.05D (235 nM in saline) followed by bandaging. Wounds evaluated at Days 3, 7, 14, and 21 were assessed by veterinarians and documented as to whether the wound was healing normally for the day post-wounding, and the size of the wound in cm^2.

punch wounds [8] = assay: Wound healing in pigs, 8 mm punch wounds, granulation tissue filling; type: in vivo, Domestic Yorkshire Crossbred pigs
Protocol: Levels of granulation tissue formation—a marker of the proliferative phase of Healing (Cascade)—were assessed in punch wounds after daily administrations of CNF011.05D or positive control (Bacaplermin gel 0.01%). The wounded animals were Domestic Yorkshire Crossbred pigs of 20 weeks of age, which were anesthesized and operated on the dorsal side of their backs. Following clipping of hair and scrub sterilization, 8 full thickness wounds were made in each pig using an 8 mm biopsy punch.
Following wounding and drying with sterile gauze, the wounds were subjected to application with different treatments (see Table 5 and 6) followed by bandaging. Long-term postoperative monitoring included daily inspection of the surgical sites for 14 days. The daily inspection included cleansing of the wounds, reapplication of the same treatments—Standard Care or Positive Control or CNF011.05D (1×) or CNF011.05D (100×)—followed by rebandaging. […]

[9] = CNF011.05D 3.0 μm/mL plus 1M L-NAME
[10] = 1x: 1 ml at 1.57 μg/ml in saline, daily, six wounds, Day 5
[11] = 1x: 1 ml at 1.57 μg/ml in saline, daily, six wounds, Day 7
[12] = 100x: 1 ml at 157 μg/ml in saline, daily, six wounds, Day 7

APLWILSTDYDNYAIGYSC [CNF011.05B]
cell viability (% viability) [1]: augment

YAIGYSCKDYK [CNF011.05D]
cell viability (% viability) [1]: augment
increase of viability of neutrophils in presence of L-NAME (Neutrophils [2]; [9]): diminished
viability of neutrophils (Neutrophils [2]; CNF011.05D alone 3.0 μm/mL): increased
increase of viability of primary endothelial cells in presence of L-NAME [3, 9]: diminished
viability of primary endothelial cells ([3]; CNF011.05D alone 3.0 μm/mL): increased
production of NO2 (Neutrophils [4]): increases
production of fibronectin by fibroblasts (Human fibroblasts [5]): significant enhancement
tenascin production by fibroblasts (Human fibroblasts [6]): significant difference
Treated Skin Collagen (%) (collagen in the dermis; four subcutaneous doses 0.30 μg (total 1.20), 4 weeks after dose): 37.60% and 34.94%
Treated Skin Collagen (%) (collagen in the dermis; single subcutaneous dose 0.30 μg, 1 week after dose): 41.20% and 57.15%
Treated Skin Collagen (%) (collagen in the dermis; single subcutaneous dose 0.30 μg, 2 weeks after dose): 43.78% and 39.20%
Treated Skin Collagen (%) (collagen in the dermis; single subcutaneous dose 0.30 μg, 12 weeks after dose): 29.57% and 27.22%
Treated Skin Collagen (%) (collagen in the dermis; two subcutaneous doses 0.30 μg one week apart (total 0.60), 2 weeks after dose): 44.19% and 37.91%
Treated Skin Collagen (%) (collagen in the dermis; two subcutaneous doses 0.30 μg one week apart (total 0.60), 12 weeks after dose): 39.23% and 47.33%
Day 3 Size of punch wounds (punch wounds [7]; 235 nM in saline, single dose, then bandaging, Day 3, 8 rats per timepoint): 0.200 cm^2
Day 7 Size of punch wounds (punch wounds [7]; 235 nM in saline, single dose, then bandaging, Day 7, 8 rats per timepoint): 0.084 cm^2
Day 14 Size of punch wounds (punch wounds [7]; 235 nM in saline, single dose, then bandaging, Day 14, 8 rats per timepoint): 0.053 cm^2
Day 21 Size of punch wounds (punch wounds [7]; 235 nM in saline, single dose, then bandaging, Day 21, 8 rats per timepoint): Scar **
scar size and color (punch wounds [7]; 21 days, in comparison to Standard Care (negative control)): scars of reduced size and color
Granulation Tissue Filling No (wounds) (punch wounds [8]; 1x: 1 ml at 1.57 μg/ml in saline, daily, six wounds, Day 1): 6
Granulation Tissue Filling No (wounds) (punch wounds [8]; [10]): 3
Granulation Tissue Filling Yes (wounds) (punch wounds [8]; [10]): 3
Granulation Tissue Filling No (wounds) (punch wounds [8]; [11]): 2
Granulation Tissue Filling Yes (wounds) (punch wounds [8]; [11]): 4
Granulation Tissue Filling Yes (wounds) (punch wounds [8]; 1x: 1 ml at 1.57 μg/ml in saline, daily, six wounds, Day 10): 6
Granulation Tissue Filling Yes (wounds) (punch wounds [8]; 1x: 1 ml at 1.57 μg/ml in saline, daily, six wounds, Day 14): 6
Granulation Tissue Filling No (wounds) (punch wounds [8]; 1x: 1 ml ointment at 1.57 μg/ml in Hydroxyethyl cellulose/Glycerin (20%/80%), two wounds, Day 1): 2
Granulation Tissue Filling Yes (wounds) (punch wounds [8]; 1x: 1 ml ointment at 1.57 μg/ml in Hydroxyethyl cellulose/Glycerin (20%/80%), two wounds, Day 5): 2
Granulation Tissue Filling Yes (wounds) (punch wounds [8]; 1x: 1 ml ointment at 1.57 μg/ml in Hydroxyethyl cellulose/Glycerin (20%/80%), two wounds, Day 7): 2
Granulation Tissue Filling Yes (wounds) (punch wounds [8]; 1x: 1 ml ointment at 1.57 μg/ml in Hydroxyethyl cellulose/Glycerin (20%/80%), two wounds, Day 10): 2
Granulation Tissue Filling Yes (wounds) (punch wounds [8]; 1x: 1 ml ointment at 1.57 μg/ml in Hydroxyethyl cellulose/Glycerin (20%/80%), two wounds, Day 14): 2
Granulation Tissue Filling No (wounds) (punch wounds [8]; 100x: 1 ml at 157 μg/ml in saline, daily, six wounds, Day 1): 6
Granulation Tissue Filling No (wounds) (punch wounds [8]; 100x: 1 ml at 157 μg/ml in saline, daily, six wounds, Day 5): 6
Granulation Tissue Filling No (wounds) (punch wounds [8]; [12]): 5
Granulation Tissue Filling Yes (wounds) (punch wounds [8]; [12]): 1
Granulation Tissue Filling Yes (wounds) (punch wounds [8]; 100x: 1 ml at 157 μg/ml in saline, daily, six wounds, Day 10): 6
Granulation Tissue Filling Yes (wounds) (punch wounds [8]; 100x: 1 ml at 157 μg/ml in saline, daily, six wounds, Day 14): 6
Granulation Tissue Filling No (wounds) (punch wounds [8]; 100x: 1 ml ointment at 157 μg/ml in Hydroxyethyl cellulose/Glycerin (20%/80%), two wounds, Day 1): 2
Granulation Tissue Filling Yes (wounds) (punch wounds [8]; 100x: 1 ml ointment at 157 μg/ml in Hydroxyethyl cellulose/Glycerin (20%/80%), two wounds, Day 5): 2
Granulation Tissue Filling Yes (wounds) (punch wounds [8]; 100x: 1 ml ointment at 157 μg/ml in Hydroxyethyl cellulose/Glycerin (20%/80%), two wounds, Day 7): 2
Granulation Tissue Filling Yes (wounds) (punch wounds [8]; 100x: 1 ml ointment at 157 μg/ml in Hydroxyethyl cellulose/Glycerin (20%/80%), two wounds, Day 10): 2
Granulation Tissue Filling Yes (wounds) (punch wounds [8]; 100x: 1 ml ointment at 157 μg/ml in Hydroxyethyl cellulose/Glycerin (20%/80%), two wounds, Day 14): 2
